Measurements as given in patent US20210349108A1, “IMMUNOASSAY FOR MEASURING C-PEPTIDE” (Roche Diabetes Care GmbH, priority 2018, published 2021).

Assays:
[1] = test system: anti-C-peptide antibody CPT-3-F11; test: QCM displacement immunoassay, ligand immobilized on Au-surface, antibody CPT-3-F11; format: binding
[2] = test system: anti-C-peptide antibody PEP001; test: QCM displacement immunoassay, ligand immobilized on Au-surface, antibody PEP001; format: binding; conditions: for QCM frequency change on addition of sample containing WT-C-peptide (displacement of the ligand, release of antibody-C-peptide-complex): streptavidin/ligand/PEP001 assembly on Au-surface
From the text: An Au-substrate is covered with a self-assembled monolayer (SAM). This self-assembled monolayer protects the surface from unspecific adsorption of peptides or proteins. Part of the SAM molecules is coupled with biotin, which is exposed on the surface. To this surface the biotin binding protein streptavidin is applied and bound by the biotin moieties. Since streptavidin has a plurality of binding sides for biotin, a ligand labeled with biotin can be bound to the streptavidin. Finally, anti-C-peptide antibody PEP001 is added, which binds to the ligand forming an immobilized antibody-ligand-complex, which is schematically depicted in FIG. 2. The stepwise build-up of an immobilized antibody-ligand-complex on the Au-surface can be monitored using a Quartz Crystal Microbalance (QCM). […] Referring to FIG. 3, attachment of streptavidin and Mut6-C-peptide results in a frequency shift of about −20 Hz. The binding of antibody PEP001 to the ligand Mut6-C-peptide results in a frequency shift of about >−50 Hz.
Addition of a sample containing C-peptide results in displacement of the ligand by wild type C-peptide and release of a C-peptide-antibody-complex as schematically shown in FIG. 2.
A quantitative determination of the amount of C-peptide within a sample can be achieved by calibrating the assay using solutions having known C-peptide concentrations. The amount of frequency shift observed for a sample indicates the quantitative amount of C-peptide being present within that sample.
An immunoassay as described in Example 1 was provided except that Mut3-C-peptide, Mut2-C-peptide or Mut5-C-peptide were used as ligand.
As described in Example 1, a SAM/biotin/streptavidin/biotin-ligand/antibody-complex is immobilized on an Au-surface. In this Example the ligand was C-peptide mutant B10-25_Mut3, the antibody was PEP001.
Immobilization of a ligand to a surface can also be performed using a linker (instead of a self-assembling monolayer). A suitable linker is for example a cysteine linker. In this configuration immobilization of an antibody via an antibody-ligand-complex to the surface can be detected by measuring impedance. A ligand having the sequence N-[…]-C(SEQ ID NO:7) was directly immobilized on an Au-surface. Additionally, 6-ferrocenyl-1-hexanethiol was bound to the Au surface for enhanced impedance measurement. Unspecific protein binding to the surface was avoided by incubation with a polyethylene glycol (ML-PEG) and bovine serum albumin (BSA).

## N-GQVECGGGPG-C (variant C-peptide Mut18) [Mut18-C-peptide, C-peptide variant AA8-17; L(12)to C]
[1]; antibody CPT-3-F11
  QCM frequency change on addition of sample containing WT-C-peptide (displacement of the ligand): considerable frequency increase
[1]; streptavidin/ligand assembly on Au-surface
  frequency shift on addition of anti-C-peptide antibody CPT-3-F11: ~−30 Hz

## N-VELGGGPGAGSIQPLA-C (variant C-peptide Mut3) [Mut3-C-peptide, C-peptide variant AA10-25; L(21)to I]
[2]; QCM
  QCM frequency change on addition of sample containing WT-C-peptide (displacement of the ligand, release of antibody-C-peptide-complex): considerable frequency increase
[2]; continuous assay, 500 ng/ml WT-C-peptide, antibody PEP001
  QCM frequency change on adding WT-C-peptide (release of antibody-WT-C-peptide-complex): positive frequency shift

## N-CGSGSGSGS-VELGGGPGAGSLAPLA-C (CGSGSGSGSVELGGGPGAGSLAPLA; variant C-peptide Mut6-Cys) [SEQ ID NO:7, AA10-25; Q(22) to A and including a cysteine linker]
[2]; ligand directly immobilized on Au-surface via cysteine linker
  QCM frequency change on addition of PEP001 antibody: considerable negative shift of the frequency
[2]; ligand directly immobilized on Au-surface via cysteine linker, QCM
  effect of addition of WT-C-peptide on bound antibody: release of the bound antibody

## N-VELGGGPGAGSLAPLA-C (variant C-peptide Mut6) [Mut6-C-peptide, C-peptide variant AA10-25; Q(22)to A]
[2]; QCM, biotin-labeled ligand on SAM/biotin/streptavidin Au-surface, negative shift = mass increase
  frequency shift on binding of antibody PEP001 to the ligand: > −50 Hz
[2]; QCM
  QCM frequency change on addition of sample containing WT-C-peptide (displacement of the ligand, release of antibody-C-peptide-complex): observable positive frequency shift
